Laboratory results published in publication PMC7587356, “High-Throughput Screening for Inhibitors of the SARS-CoV-2 Protease Using a FRET-Biosensor” (Molecules, 2020).
Where a name gives a salt, the structure may show the parent alone. Read-outs that look alike come from different tables or passages of the source.

Target: SARS-CoV-2 3CLpro (Severe acute respiratory syndrome coronavirus 2, UniProt P0DTD1)
Assay: biochemical
Assay type: biochemical
Set-up: Replicate_1 / Replicate_2 / mean / mean (LOPAC_screen_w_protease): unit not given here
Conditions: for inhibition at 5 µM: 4 h
[1] = sheet LOPAC_screen_w_protease, primary screen with protease, 5 µM, mean of two replicates, read-out: mean
[2] = sheet LOPAC_screen_w_protease, primary screen with protease, 5 µM, replicate 1, read-out: Replicate_1
[3] = sheet LOPAC_screen_w_protease, primary screen with protease, 5 µM, replicate 2, read-out: Replicate_2
[4] = sheet LOPAC_screen_w_protease, LOPAC1280 primary screen at 5 µM, with protease, mean of two replicates
[5] = sheet LOPAC_screen_w_protease, LOPAC1280 primary screen at 5 µM, with protease, replicate 1
[6] = sheet LOPAC_screen_w_protease, LOPAC1280 primary screen at 5 µM, with protease, replicate 2
[7] = sheet LOPAC_screen_w_protease, primary screen with protease, 5 µM, mean of two replicates
[8] = sheet LOPAC_screen_w_protease, primary screen with protease, 5 µM, replicate 1
[9] = sheet LOPAC_screen_w_protease, primary screen with protease, 5 µM, replicate 2
[10] = sheet LOPAC_screen_w_protease, LOPAC1280 primary screen at 5 µM, with protease, mean of the two replicates
[11] = sheet LOPAC_screen_w_protease, primary screen with protease, mean of two replicates
[12] = sheet LOPAC_screen_w_protease, primary screen with protease, replicate 1
[13] = sheet LOPAC_screen_w_protease, primary screen with protease, replicate 2
[14] = sheet LOPAC_screen_w_protease, LOPAC1280 at 5 µM, mean of two replicates
[15] = sheet LOPAC_screen_w_protease, LOPAC1280 at 5 µM, replicate 1
[16] = sheet LOPAC_screen_w_protease, LOPAC1280 at 5 µM, replicate 2
[17] = sheet LOPAC_screen_w_protease, LOPAC1280 at 5 µM, mean of two replicates, read-out: mean
[18] = sheet LOPAC_screen_w_protease, LOPAC1280 at 5 µM, replicate 1, read-out: Replicate_1
[19] = sheet LOPAC_screen_w_protease, LOPAC1280 at 5 µM, replicate 2, read-out: Replicate_2
[20] = LOPAC1280 primary screen with protease, 5 µM compound, mean of two replicates
[21] = LOPAC1280 primary screen with protease, 5 µM compound, replicate 1
[22] = LOPAC1280 primary screen with protease, 5 µM compound, replicate 2
[23] = sheet LOPAC_screen_w_protease, LOPAC1280 primary screen at 5 µM, with protease, mean of the two replicates, read-out: mean
[24] = sheet LOPAC_screen_w_protease, LOPAC1280 primary screen at 5 µM, with protease, replicate 1, read-out: Replicate_1
[25] = sheet LOPAC_screen_w_protease, LOPAC1280 primary screen at 5 µM, with protease, replicate 2, read-out: Replicate_2
[26] = LOPAC1280 primary screen with protease, 5 µM compound, replicate 1, read-out: Replicate_1 (LOPAC_screen_w_protease)
[27] = LOPAC1280 primary screen with protease, 5 µM compound, replicate 2, read-out: Replicate_2 (LOPAC_screen_w_protease)
[28] = LOPAC1280 primary screen with protease, 5 µM compound, mean of the two replicates

## Brc1c(NC2=NCCN2)ccc2nccnc12 [UK 14,304]
  Replicate_1 (LOPAC_screen_w_protease): 1.98
  Replicate_2 (LOPAC_screen_w_protease): 2.1604
  mean (LOPAC_screen_w_protease): 2.07

## COc1ccccc1N1CCN(CCCNc2cc(=O)n(C)c(=O)n2C)CC1 [Urapidil hydrochloride]
[1]
  inhibition at 5 µM: -0.372%
[2]
  inhibition at 5 µM: 0.127%
[3]
  inhibition at 5 µM: -0.871%

## COc1ccccc1N1CCN(CCCNc2c(C)c(=O)n(C)c(=O)n2C)CC1 [Urapidil, 5-Methyl-]
[4]
  mean: -1.384
[5]
  Replicate_1: -1.313
[6]
  Replicate_2: -1.455

## O=c1ccn([C@@H]2O[C@H](COP(=O)([O-])OP(=O)([O-])O)[C@@H](O)[C@H]2O)c(=O)[nH]1.[Na+].[Na+] [Uridine 5'-diphosphate sodium]
[7]
  mean: -0.3913
[8]
  Replicate_1: -1.155
[9]
  Replicate_2: 0.3722

## C[C@H](N)CN1CCc2ccc(Br)cc21.C[C@H](N)CN1CCc2ccc(Br)cc21.O=C(O)/C=C/C(=O)O [VER-3323 hemifumarate salt]
[10]
  mean: 0.8173
[5]
  Replicate_1: 0.78
[6]
  Replicate_2: 0.8545

## COc1ccccc1NC(=O)Nc1nc(-c2cccnc2)nc2ccccc12 [VUF 5574]
[11]
  mean: 2.164
[12]
  Replicate_1: 1.496
[13]
  Replicate_2: 2.8319

## CCCC(CCC)C(=O)O [Valproic acid sodium]
Sheet LOPAC_screen_w_protease, primary screen of LOPAC1280 at 5 µM with protease, mean of the two replicates, read-out: mean
  inhibition at 5 µM: 3.18%
Sheet LOPAC_screen_w_protease, primary screen of LOPAC1280 at 5 µM with protease, replicate 1, read-out: Replicate_1
  inhibition at 5 µM: 2.68%
Sheet LOPAC_screen_w_protease, primary screen of LOPAC1280 at 5 µM with protease, replicate 2, read-out: Replicate_2
  inhibition at 5 µM: 3.67%

## CCN(CC)C(=O)c1ccc(O)c(OC)c1 [Vanillic acid diethylamide]
[14]
  mean: 0.9703
[15]
  Replicate_1: 1.198
[16]
  Replicate_2: 0.7424

## CC[C@]1(O)C[C@@H]2CN(CCc3c([nH]c4ccccc34)[C@@](C(=O)OC)(c3cc4c(cc3OC)N(C)[C@H]3[C@@](O)(C(=O)OC)[C@H](OC(C)=O)[C@]5(CC)C=CCN6CC[C@]43[C@@H]65)C2)C1.O=S(=O)(O)O [Vinblastine sulfate salt]
[7]
  mean: 0.3705
[8]
  Replicate_1: 2.018
[9]
  Replicate_2: -1.277

## CCOC(=O)C1=C[C@]2(CC)CCCN3CCc4c(n1c1ccccc41)[C@@H]32 [Vinpocetine]
[17]
  inhibition at 5 µM: 0.949%
[18]
  inhibition at 5 µM: 0.618%
[19]
  inhibition at 5 µM: 1.28%

## COc1ccccc1N1CCN(CCN(C(=O)C2CCCCC2)c2ccccn2)CC1.O=C(O)/C=C\C(=O)O [WAY-100635 maleate]
[14]
  mean: 1.0596
[15]
  Replicate_1: 1.502
[16]
  Replicate_2: 0.6169

## C[N+](C)(CCCCCC[N+](C)(C)CCCN1C(=O)c2cccc3cccc(c23)C1=O)CCCN1C(=O)c2cccc3cccc(c23)C1=O.[Br-].[Br-] [WB 64]
[10]
  mean: 0.6302
[5]
  Replicate_1: 0.2165
[6]
  Replicate_2: 1.044

## COc1cccc(OC)c1OCCNCC1COc2ccccc2O1.Cl (stereo not drawn) [WB-4101 hydrochloride]
[20]
  mean (LOPAC_screen_w_protease): 1.343
[21]
  Replicate_1 (LOPAC_screen_w_protease): 1.824
[22]
  Replicate_2 (LOPAC_screen_w_protease): 0.8625

## C#C[C@]1(O)CC[C@H]2[C@@H]3CCC4=Cc5nc6nc7ccccc7n6cc5C[C@]4(C)[C@H]3CC[C@@]21C [WIN 62,577]
  Replicate_1: -0.8505
  Replicate_2: 3.428
  mean: 1.289

## COC[C@H]1OC(=O)c2coc3c2[C@@]1(C)C1=C(C3=O)[C@@H]2CCC(=O)[C@@]2(C)C[C@H]1OC(C)=O [Wortmannin from Penicillium funiculosum]
[11]
  mean: 2.471
[12]
  Replicate_1: 2.1754
[13]
  Replicate_2: 2.767

## CC(Oc1ccc(Oc2cnc3ccc(Cl)cc3n2)cc1)C(=O)O (stereo not drawn) [XK469]
[14]
  mean: 1.32
[15]
  Replicate_1: 0.4248
[16]
  Replicate_2: 2.215

## O=C(NCCNCC(O)COc1ccc(O)cc1)N1CCOCC1 (stereo not drawn) [Xamoterol hemifumarate]
[23]
  inhibition at 5 µM: 0.551%
[24]
  inhibition at 5 µM: 1.09%
[25]
  inhibition at 5 µM: 0.0143%

## CCCn1c(=O)c2[nH]c(-c3ccc(OCC(=O)NCCN)cc3)nc2n(CCC)c1=O [Xanthine amine congener]
[4]
  mean: -1.654
[5]
  Replicate_1: -1.399
[6]
  Replicate_2: -1.91

## Cc1cccc(C)c1N=C1NCCCS1 [Xylazine hydrochloride]
read-out: Replicate_1
  inhibition at 5 µM: 0.366%
read-out: Replicate_2
  inhibition at 5 µM: 2.25%
read-out: mean
  inhibition at 5 µM: 1.31%

## Cc1cc(C(C)(C)C)cc(C)c1CC1=NCCN1 [Xylometazoline hydrochloride]
[17]
  inhibition at 5 µM: 1.12%
[18]
  inhibition at 5 µM: 0.813%
[19]
  inhibition at 5 µM: 1.42%

## C[C@@H](N)[C@H]1CC[C@H](C(=O)Nc2ccncc2)CC1.Cl.Cl [Y-27632 dihydrochloride]
[20]
  mean (LOPAC_screen_w_protease): 1.325
[21]
  Replicate_1 (LOPAC_screen_w_protease): 2.12
[22]
  Replicate_2 (LOPAC_screen_w_protease): 0.5298

## OCc1ccc(-c2nn(Cc3ccccc3)c3ccccc23)o1 [YC-1]
[20]
  mean (LOPAC_screen_w_protease): 1.333
[21]
  Replicate_1 (LOPAC_screen_w_protease): 0.3284
[22]
  Replicate_2 (LOPAC_screen_w_protease): 2.338

## COc1ccc(CCN(C)CCc2ccc(OC)c(OC)c2)cc1OC.Cl [YS-035 hydrochloride]
[10]
  mean: 0.8264
[5]
  Replicate_1: 0.7595
[6]
  Replicate_2: 0.8934

## COC(=O)[C@@H]1[C@H]2C[C@H]3c4[nH]c5ccccc5c4CCN3C[C@@H]2CC[C@@H]1O [Yohimbine hydrochloride]
[1]
  inhibition at 5 µM: 0.269%
[2]
  inhibition at 5 µM: -0.997%
[3]
  inhibition at 5 µM: 1.53%

## O=C(N[C@@H](Cc1ccccc1)C(=O)CCl)OCc1ccccc1 [Z-L-Phe chloromethyl ketone]
Sheet LOPAC_screen_w_protease, primary screen at 5 µM, mean of two replicates, read-out: mean (LOPAC screen with protease)
  inhibition at 5 µM: 100%
Sheet LOPAC_screen_w_protease, primary screen at 5 µM, replicate 1, read-out: Replicate_1 (LOPAC screen with protease)
  inhibition at 5 µM: 100%
Sheet LOPAC_screen_w_protease, primary screen at 5 µM, replicate 2, read-out: Replicate_2 (LOPAC screen with protease)
  inhibition at 5 µM: 100%

## CC(C)N(CCC(=O)c1ccc2ccccc2c1)Cc1ccccc1.Cl [ZM 39923 hydrochloride]
Sheet LOPAC_screen_w_protease, primary screen at 5 µM, mean of two replicates
  mean (LOPAC screen with protease): 93.4745
Sheet LOPAC_screen_w_protease, primary screen at 5 µM, replicate 1
  Replicate_1 (LOPAC screen with protease): 92.2854
Sheet LOPAC_screen_w_protease, primary screen at 5 µM, replicate 2
  Replicate_2 (LOPAC screen with protease): 94.6636

## CCCOc1ccccc1-c1nc2nn[nH]c2c(=O)[nH]1 [Zaprinast]
[26]
  inhibition at 5 µM: 2.02%
[27]
  inhibition at 5 µM: 1.12%
[20]
  mean (LOPAC_screen_w_protease): 1.567

## COc1cc(-c2ccc(=O)[nH]n2)ccc1OC(F)F [Zardaverine]
[26]
  inhibition at 5 µM: 2.27%
[27]
  inhibition at 5 µM: 1.55%
[28]
  mean (LOPAC_screen_w_protease): 1.91

## CN(C)C/C=C(/c1ccc(Br)cc1)c1cccnc1 [Zimelidine dihydrochloride]
[17]
  inhibition at 5 µM: 0.989%
[18]
  inhibition at 5 µM: 1.05%
[19]
  inhibition at 5 µM: 0.928%

## NS(=O)(=O)Cc1noc2ccccc12 [Zonisamide sodium]
[23]
  inhibition at 5 µM: 0.586%
[24]
  inhibition at 5 µM: -0.00469%
[25]
  inhibition at 5 µM: 1.18%

## N=C(N)NC(CCC(=O)O)C(=O)O (stereo not drawn) [alpha-Guanidinoglutaric acid]
[28]
  mean (LOPAC_screen_w_protease): 1.992
[21]
  Replicate_1 (LOPAC_screen_w_protease): 2.352
[22]
  Replicate_2 (LOPAC_screen_w_protease): 1.632

## CN1[C@@H](CC(=O)c2ccccc2)CCC[C@H]1C[C@H](O)c1ccccc1.Cl [alpha-Lobeline hydrochloride]
[14]
  mean: 1.292
[15]
  Replicate_1: 1.696
[16]
  Replicate_2: 0.8887

## CC(N)Cc1c[nH]c2ccc(O)cc12.O=C(O)/C=C\C(=O)O (stereo not drawn) [alpha-Methyl-5-hydroxytryptamine maleate]
Sheet LOPAC_screen_w_protease, LOPAC1280 primary screen with protease, 5 µM compound, mean of the two replicates
  mean: 6.214
Sheet LOPAC_screen_w_protease, LOPAC1280 primary screen with protease, 5 µM compound, replicate 1
  Replicate_1: 5.086
Sheet LOPAC_screen_w_protease, LOPAC1280 primary screen with protease, 5 µM compound, replicate 2
  Replicate_2: 7.342

## Cl.N[C@@H](CCl)C(=O)O [beta-Chloro-L-alanine hydrochloride]
[11]
  mean: 2.368
[12]
  Replicate_1: 2.376
[13]
  Replicate_2: 2.361

## CC1(C)CCC2=C(O1)c1ccccc1C(=O)C2=O [beta-Lapachone]
read-out: Replicate_1
  inhibition at 5 µM: 0.593%
read-out: Replicate_2
  inhibition at 5 µM: 0.52%
read-out: mean
  inhibition at 5 µM: 0.557%
